Experimental data published in article PMC4183655, “Discovery and Optimization of Small-Molecule Ligands for the CBP/p300 Bromodomains” (Journal of the American Chemical Society, 2014).
Like-named read-outs stand apart in the source and are kept apart here.

Columns and labels:
[1] = target: T1, BRD9 (Homo sapiens, UniProt Q9H8M2); experiment: Peptide displacement AlphaScreen; assay type: binding
T1 construct: using recombinant BRDs as surrogates of full-length protein
T1 sequence (Q9H8M2 136-240 limits assumed): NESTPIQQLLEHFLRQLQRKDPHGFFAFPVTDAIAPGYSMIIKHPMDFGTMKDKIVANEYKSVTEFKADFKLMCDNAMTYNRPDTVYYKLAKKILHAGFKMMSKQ

[2] = target: T1, BRD9; experiment: DSF (ΔTm) selectivity panel; assay type: binding; settings: compound 10 µM
[3] = target: T2, BRD4(1) (Homo sapiens, UniProt O60885); experiment: DSF (ΔTm) thermal stability assay; assay type: binding; settings: compound concentration 10 μM; mean ± SEM (number of measurements)
[4] = target: T3, CBP (Homo sapiens, UniProt Q92793); experiment: Peptide displacement AlphaScreen; assay type: binding; settings: read-out: AlphaScreen IC50 CBP
T3 sequence (Q92793 1085-1192 limits assumed): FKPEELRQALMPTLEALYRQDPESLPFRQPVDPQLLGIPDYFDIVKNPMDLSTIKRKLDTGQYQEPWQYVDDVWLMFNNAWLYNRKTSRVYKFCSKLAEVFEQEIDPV

[5] = target: T3, CBP; experiment: DSF (ΔTm) thermal stability assay; assay type: binding; settings: compound concentration 10 μM; mean ± SEM (number of measurements)
[6] = target: T2, BRD4(1); experiment: Peptide displacement AlphaScreen; assay type: binding
[7] = target: T2, BRD4(1); experiment: Isothermal titration calorimetry (ITC)
[8] = target: T4, p300 (Homo sapiens, UniProt Q09472); experiment: DSF (ΔTm) thermal stability assay; assay type: binding; settings: compound 10 µM
T4 sequence (Q09472 1049-1156 limits assumed): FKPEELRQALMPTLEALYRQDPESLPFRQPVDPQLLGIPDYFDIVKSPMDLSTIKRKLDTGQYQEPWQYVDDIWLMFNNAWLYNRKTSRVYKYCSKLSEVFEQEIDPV

[9] = target: T5, CECR2 (Homo sapiens, UniProt Q9BXF3); experiment: Peptide displacement AlphaScreen; assay type: binding
T5 construct: using recombinant BRDs as surrogates of full-length protein
T5 sequence (Q9BXF3 434-538 limits assumed): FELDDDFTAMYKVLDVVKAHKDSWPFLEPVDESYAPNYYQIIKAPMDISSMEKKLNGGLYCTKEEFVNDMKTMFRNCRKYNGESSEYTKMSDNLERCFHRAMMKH

[10] = target: T4, p300; experiment: Isothermal titration calorimetry (ITC)
[11] = target: T4, p300; experiment: Peptide displacement AlphaScreen; assay type: binding
[12] = target: T3, CBP; experiment: Isothermal titration calorimetry (ITC)
[13] = target: T5, CECR2; experiment: DSF (ΔTm) selectivity panel; assay type: binding; settings: compound 10 µM
[14] = target: T6, BAZ2A (Homo sapiens, UniProt Q9UIF9); experiment: DSF (ΔTm) thermal stability assay; assay type: binding; settings: compound 10 µM
T6 construct: using recombinant BRDs as surrogates of full-length protein
T6 sequence (Q9UIF9 1793-1897 limits assumed): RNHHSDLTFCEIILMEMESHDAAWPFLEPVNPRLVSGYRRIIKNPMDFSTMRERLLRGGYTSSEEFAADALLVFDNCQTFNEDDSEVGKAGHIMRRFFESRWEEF

[15] = target: T7, ATAD2 (Homo sapiens, UniProt Q6PL18); experiment: DSF (ΔTm) thermal stability assay; assay type: binding; settings: compound 10 µM
T7 construct: using recombinant BRDs as surrogates of full-length protein
T7 sequence (Q6PL18 980-1092 limits assumed): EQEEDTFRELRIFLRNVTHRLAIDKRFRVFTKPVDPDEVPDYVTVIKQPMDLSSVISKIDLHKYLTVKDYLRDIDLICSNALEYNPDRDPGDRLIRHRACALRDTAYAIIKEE

[16] = target: T6, BAZ2A; experiment: Peptide displacement AlphaScreen; assay type: binding
[17] = target: T7, ATAD2; experiment: Peptide displacement AlphaScreen; assay type: binding
[18] = Cytotoxicity assay; settings: human, U2OS osteosarcoma cells
[19] = target: T8, PDE5 (h) (non-selective) (Homo sapiens, UniProt O76074); experiment: Cerep profiling; assay type: biochemical
T8 construct: CEREP (BioPrint Full Panel, contract assay)

[20] = target: T9, alpha 2C (h) (Homo sapiens, UniProt P18825); experiment: Cerep profiling, antagonist radioligand; assay type: binding
T9 construct: CEREP (BioPrint Full Panel, contract assay)
T9 sequence (P18825 whole entry): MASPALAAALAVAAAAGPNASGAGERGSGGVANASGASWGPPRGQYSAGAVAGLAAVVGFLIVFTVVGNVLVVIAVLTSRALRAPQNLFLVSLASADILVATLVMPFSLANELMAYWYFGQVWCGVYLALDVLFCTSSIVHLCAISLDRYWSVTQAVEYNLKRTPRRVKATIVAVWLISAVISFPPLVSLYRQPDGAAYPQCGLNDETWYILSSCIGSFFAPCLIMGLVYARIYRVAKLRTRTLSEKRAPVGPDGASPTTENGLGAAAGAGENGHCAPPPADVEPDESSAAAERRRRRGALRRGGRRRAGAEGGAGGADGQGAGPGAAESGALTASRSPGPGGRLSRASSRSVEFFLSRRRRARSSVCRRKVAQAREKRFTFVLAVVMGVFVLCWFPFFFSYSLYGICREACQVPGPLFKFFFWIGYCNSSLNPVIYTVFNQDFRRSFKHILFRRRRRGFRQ

[21] = target: T10, BRD2(1) (Homo sapiens, UniProt P25440); experiment: DSF (ΔTm) selectivity panel; assay type: binding; settings: compound 10 µM
T10 construct: using recombinant BRDs as surrogates of full-length protein
T10 sequence (P25440 74-180 limits assumed): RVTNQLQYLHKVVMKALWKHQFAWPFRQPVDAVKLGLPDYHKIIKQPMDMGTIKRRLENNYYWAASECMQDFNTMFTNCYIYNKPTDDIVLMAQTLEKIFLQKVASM

[22] = target: T11, BRD3(1) (Homo sapiens, UniProt Q15059); experiment: DSF (ΔTm) selectivity panel; assay type: binding; settings: compound 10 µM
T11 construct: using recombinant BRDs as surrogates of full-length protein
T11 sequence (Q15059 34-140 limits assumed): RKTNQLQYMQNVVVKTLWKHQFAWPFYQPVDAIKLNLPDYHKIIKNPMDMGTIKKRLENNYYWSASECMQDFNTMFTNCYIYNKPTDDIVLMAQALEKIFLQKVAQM

[23] = Human liver microsome (HLM) stability assay; assay type: in vitro ADME; settings: microsomes, 1 h
[24] = target: PAF (h) (Homo sapiens, UniProt P25105); experiment: Cerep profiling, agonist radioligand
PAF (h), sequence (P25105 whole entry): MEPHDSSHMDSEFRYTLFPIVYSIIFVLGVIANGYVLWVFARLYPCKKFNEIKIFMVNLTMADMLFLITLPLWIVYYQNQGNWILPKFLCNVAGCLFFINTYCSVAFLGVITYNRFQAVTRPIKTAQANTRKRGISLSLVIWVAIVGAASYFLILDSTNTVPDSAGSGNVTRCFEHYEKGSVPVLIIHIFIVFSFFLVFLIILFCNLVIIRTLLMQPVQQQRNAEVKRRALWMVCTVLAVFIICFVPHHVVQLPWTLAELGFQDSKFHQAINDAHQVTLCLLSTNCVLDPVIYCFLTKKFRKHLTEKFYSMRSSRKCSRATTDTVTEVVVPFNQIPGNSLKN

[25] = tested on: GFP-tagged 3 × CBP BRD construct; experiment: Fluorescence recovery after photo-bleaching (FRAP) assay; settings: HeLa cells, SAHA-treated, compound 0.1 μM
[26] = tested on: p53-driven luciferase activity in RKO cells; experiment: p53 luciferase reporter assay; assay type: cell-based, human; settings: compound 24 h then doxorubicin 0.3 μM 16 h, read-out: Inhibition of doxorubicin-induced p53-driven luciferase activity IC50
Experimental: Refinement was carried out in
refinement cycles. […] The
Cell culture and reagents
Fluorescence Recovery After Photobleaching (FRAP) Assay
In brief RKO cells were transfected with
well plate format using Fugene HD (Roche).
Compounds were dissolved in dimethyl sulfoxide
5 ul of compound solution was added
mixing plates returned to the incubator.

[27] = target: T12, alpha 2A (h) (Homo sapiens, UniProt P08913); experiment: Cerep profiling, antagonist radioligand; assay type: binding
T12 construct: CEREP (BioPrint Full Panel, contract assay)
T12 sequence (P08913 whole entry): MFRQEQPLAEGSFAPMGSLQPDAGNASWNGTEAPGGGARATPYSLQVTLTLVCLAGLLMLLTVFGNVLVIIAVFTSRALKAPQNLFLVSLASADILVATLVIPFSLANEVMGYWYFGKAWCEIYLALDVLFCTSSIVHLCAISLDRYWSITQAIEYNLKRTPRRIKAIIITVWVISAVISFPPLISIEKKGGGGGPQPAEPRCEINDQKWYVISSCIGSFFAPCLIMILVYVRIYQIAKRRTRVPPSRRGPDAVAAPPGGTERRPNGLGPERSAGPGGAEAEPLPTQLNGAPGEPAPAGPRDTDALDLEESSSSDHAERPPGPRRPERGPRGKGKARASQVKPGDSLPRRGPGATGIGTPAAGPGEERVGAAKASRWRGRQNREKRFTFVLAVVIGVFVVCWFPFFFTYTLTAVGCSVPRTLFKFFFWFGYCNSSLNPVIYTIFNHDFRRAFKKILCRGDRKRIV

SMILES: Cc1noc(C)c1-c1ccc2c(c1)nc(CCc1ccccc1)n2CCN1CCCC1 [Compound 15]
- IC50 [1]: 100000 nM
- ΔTm at 10 µM [2]: 1.5 °C
- ΔTm at 10 µM [3]: 2.7 °C
- IC50 [4]: 840 nM
- ΔTm at 10 µM [5]: 5.4 °C
- IC50 [6]: 9100 nM

SMILES: Cc1noc(C)c1-c1ccc2c(c1)nc(CCc1ccccc1)n2CCN1CCCCC1 [Compound 16]
- IC50 [1]: > 25000 nM
- ITC N (molar binding ratio of the ligand-protein interaction), BRD4(1) [7]: 1.10 ± 0.005
- ITC ∆G, BRD4(1) [7]: -8.01 kcal/mol
- ITC ∆H, BRD4(1) [7]: -5.86 ± 0.0338 kcal/mol
- ITC 9T∆S, BRD4(1) ([7]; At T = 298.15 K): -2.15 kcal/mol
- Kd ([7]; ITC Ka, BRD4(1)): 952 nM
- ΔTm at 10 µM [8]: 7.9 °C
- IC50 [9]: 12000 nM
- ITC N (molar binding ratio of the ligand-protein interaction), p300 [10]: 1.00 ± 0.0028
- ITC ∆G, p300 [10]: -8.60 kcal/mol
- ITC ∆H, p300 [10]: -6.09 ± 0.0245 kcal/mol
- Kd [10]: 347 nM
- ITC 9T∆S, p300 ([10]; At T = 298.15 K): -2.51 kcal/mol
- IC50 [11]: 140 nM
- ITC N (molar binding ratio of the ligand-protein interaction), CBP [12]: 1.00 ± 0.00223
- ITC ∆G, CBP [12]: -8.66 kcal/mol
- ITC ∆H, CBP [12]: -5.76 ± 0.0184 kcal/mol
- ITC 9T∆S, CBP ([12]; At T = 298.15 K): -2.90 kcal/mol
- Kd ([12]; ITC Ka, CBP): 323 nM
- ΔTm at 10 µM [3]: 2.7 °C
- IC50 [4]: 180 nM
- ΔTm at 10 µM [13]: 1 °C
- ΔTm at 10 µM [5]: 6.5 °C
- IC50 [6]: 2400 nM

SMILES: Cc1noc(C)c1-c1ccc2c(c1)nc(CCc1ccccc1)n2CCN1CCN(C)CC1 [Compound 18]
- ΔTm at 10 µM [14]: -0.52 °C
- ΔTm at 10 µM [15]: 0.03 °C
- IC50 [16]: 14000 nM
- IC50 [17]: 19000 nM
- ΔTm at 10 µM [3]: 1.2 °C
- IC50 [4]: 2000 nM
- ΔTm at 10 µM [5]: 2 °C
- IC50 [6]: 4100 nM

SMILES: COc1ccc(CCc2nc3cc(-c4c(C)noc4C)ccc3n2C[C@H](C)N2CCOCC2)cc1Cl [Compound 59]
- CC50 at 24 h [18]: 80000 nM
- CC50 at 72 h [18]: 8100 nM
- IC50 [19]: 150 nM
- IC50 [20]: 110 nM
- ΔTm at 10 µM [21]: 1 to 2 °C
- ΔTm at 10 µM [22]: 1 to 2 °C
- HLM stability: compound detected after 60 min [23]: no compound was detected
- ΔTm at 10 µM [3]: 1 to 2 °C
- IC50 [24]: 540 nM
- FRAP half-time of fluorescence recovery (t1/2), GFP-tagged 3× CBP BRD [25]: 0.60 s
- IC50 ([26]; Homo sapiens, RKO): 1540 nM
- IC50 [26]: 1500 nM
- IC50 [27]: 570 nM
